Test results published in patent US20260022142A1, “MACROCYCLIC IMMUNOMODULATORS” (Bristol-Myers Squibb Company, priority 2022, published 2026).
pIC50: −log10 of the molar value. Bridge positions count the residues as written; N and C are the ends. Square brackets hold non-standard residues; d marks the D form. Peptide text beside a SMILES is read from it. * marks the point of attachment. ξ: configuration not given here. Phe(4-COOH) = N[C@@H](Cc1ccc(C(=O)O)cc1)C(=O)O; Bip = N[C@@H](Cc1ccc(-c2ccccc2)cc1)C(=O)O; Phe(3-Me) = Cc1cccc(C[C@H](N)C(=O)O)c1; Abu(3S-NH2) = C[C@H](N)[C@H](N)C(=O)O; ξBip = NC(Cc1ccc(-c2ccccc2)cc1)C(=O)O; NH(CH2)12COOH = O=C(O)CCCCCCCCCCCCN*; Val(3-OH) = CC(C)(O)[C@H](N)C(=O)O; 4Pal = N[C@@H](Cc1ccncc1)C(=O)O; Cha = N[C@@H](CC1CCCCC1)C(=O)O; Cit = NC(=O)NCCC[C@H](N)C(=O)O; Ile(3ξ) = CCC(C)[C@H](N)C(=O)O; Thr(3ξ) = CC(O)[C@H](N)C(=O)O; hSer = N[C@@H](CCO)C(=O)O; Carboxymethyl = O=C(O)C*; Orn = NCCC[C@H](N)C(=O)O; Aun = NCCCCCCCCCCC(=O)O; Dab = NCC[C@H](N)C(=O)O; Dap = NC[C@H](N)C(=O)O; ξD = NC(CC(=O)O)C(=O)O; AEEA = NCCOCCOCC(=O)O

The compounds below were run against T1, PD-1/PD-L1 interaction (PE-labeled human PD-L1-Ig binding to Jurkat cell line over-expressing human PD-1) (Homo sapiens, UniProt Q15116) (assay: Jurkat-PD-1 Cell Binding High-Content Screening Assay (CBA)). Details: Jurkat cell line over-expressing human PD-1; PE-labeled PD-L1-Ig 20 nM final; read-out: Jurkat hPD1-PDL1 IC50.
T1 construct: expressed in transfected cells; host or cells: Jurkat
T1 sequence (Q15116 25-288): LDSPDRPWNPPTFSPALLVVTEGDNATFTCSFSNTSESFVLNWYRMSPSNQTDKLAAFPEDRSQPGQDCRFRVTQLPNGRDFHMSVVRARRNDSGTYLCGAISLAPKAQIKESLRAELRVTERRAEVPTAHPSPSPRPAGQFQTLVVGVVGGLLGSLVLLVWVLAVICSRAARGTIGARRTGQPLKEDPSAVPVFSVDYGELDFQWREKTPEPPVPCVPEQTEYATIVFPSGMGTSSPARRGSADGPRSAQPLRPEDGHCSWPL
Type: cell-based
Summary of the method: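 Human PD-L1-Ig carrying a covalent PE label on its Ig tag serves as the probe, applied at 20 nM final to compound-treated (2 h, 37° C) Jurkat-hPD-1 cells in medium with 10% fetal calf serum. After one hour, fixation and nuclear staining precede high-content image analysis.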

pIC50 | Structure (SMILES)
6.47 | CC(C)C[C@H]1NC(=O)[C@H](CCCN)NC(=O)[C@H](Cc2ccc(O)cc2)NC(=O)[C@H](Cc2ccc(-c3ccccc3)cc2)NC(=O)[C@H](Cc2ccc(O)cc2)NC(=O)[C@H](Cc2c[nH]c3ccccc23)NC(=O)[C@H](CC(=O)O)NC(=O)[C@H](Cc2ccc(OCC(=O)O)cc2)NC(=O)[C@H](Cc2ccc(OCC(=O)O)cc2)NC(=O)CSC[C@@H](C(=O)NCCOCCOCC(=O)NCCCCCCCCCCC(=O)O)NC(=O)[C@H](CN)NC(=O)[C@H](Cc2ccc(O)cc2)NC(=O)[C@H](CC2CCCCC2)NC(=O)[C@H](CCN)NC1=O [Compound 2522] ({CH2CO}-Y(Carboxymethyl)Y(Carboxymethyl)DWY[Bip]Y[Orn][dL][Dab][Cha]Y[Dap]C[AEEA][Aun]-OH; thioether N-14)
7.04 | CC(=O)NCC[C@@H]1NC(=O)[C@H](C(C)C)NC(=O)[C@H](CC2CCCCC2)NC(=O)[C@H](CCN)NC(=O)[C@@H](CC(C)C)NC(=O)[C@H](CCC(=O)O)NC(=O)[C@H](C(C)C)NC(=O)[C@H](Cc2ccc(-c3ccccc3)cc2)NC(=O)[C@H](CC(C)C)NC(=O)[C@H](Cc2c[nH]c3ccccc23)NC(=O)[C@H](CC(=O)O)NC(=O)[C@H](Cc2ccc(OCC(=O)O)cc2)NC(=O)[C@H](Cc2ccc(OCC(=O)O)cc2)NC(=O)CSC[C@@H](C(=O)NCCOCCOCC(=O)NCCCCCCCCCCC(=O)O)NC1=O [Compound 3711] ({CH2CO}-Y(Carboxymethyl)Y(Carboxymethyl)DWL[Bip]VE[dL][Dab][Cha]V[Dab](Ac)C[AEEA][Aun]-OH; thioether N-14)
7.98 | CCC(C)[C@@H]1NC(=O)[C@H](Cc2ccc(-c3ccccc3)cc2)NC(=O)[C@H](C(C)C)NC(=O)[C@H](Cc2c[nH]c3ccccc23)NC(=O)[C@H](CC(=O)O)NC(=O)[C@H](Cc2ccc(C(=O)O)cc2)NC(=O)[C@H](Cc2ccncc2)NC(=O)CSC[C@@H](C(=O)N[C@@H](CC(N)=O)C(=O)NCCOCCOCC(=O)N[C@@H](CCCN)C(=O)NCCCCCCCCCCC(=O)O)NC(=O)[C@H](CO)NC(=O)[C@H](C(C)C)NC(=O)[C@H](CC2CCCCC2)NC(=O)[C@H](CCN)NC(=O)[C@@H](CC(C)C)NC(=O)[C@H](CCCN)NC1=O (stereo partly drawn) [Compound 3039] ({CH2CO}-[4Pal][Phe(4-COOH)]DWV[Bip][Ile(3ξ)][Orn][dL][Dab][Cha]VSCN[AEEA][Orn][Aun]-OH; thioether N-14)
8.32 | Cc1cccc(C[C@@H]2NC(=O)[C@H](CC(=O)O)NC(=O)[C@H](Cc3ccc(C(=O)O)cc3)NC(=O)[C@H](C(C)C)NC(=O)CSC[C@@H](C(=O)N[C@@H](CCN)C(=O)NCCOCCOCC(=O)NCCCCCCCCCCC(=O)O)NC(=O)[C@H](CO)NC(=O)[C@H](C(C)(C)O)NC(=O)[C@H](CC3CCCCC3)NC(=O)[C@H](CCN)NC(=O)[C@@H](CC(C)C)NC(=O)[C@H](CCCN)NC(=O)[C@H](Cc3ccc(OCC(=O)O)cc3)NC(=O)[C@H](Cc3ccc(-c4ccccc4)cc3)NC(=O)[C@H](Cc3ccc(OCC(=O)O)cc3)NC2=O)c1 [Compound 3743] ({CH2CO}-V[Phe(4-COOH)]D[Phe(3-Me)]Y(Carboxymethyl)[Bip]Y(Carboxymethyl)[Orn][dL][Dab][Cha][Val(3-OH)]SC[Dab][AEEA][Aun]-OH; thioether N-14)
7.47 | Cc1cccc(C[C@@H]2NC(=O)[C@H](CC(=O)O)NC(=O)[C@H](Cc3ccc(OCC(=O)O)cc3)NC(=O)[C@H](C(C)O)NC(=O)CSC[C@@H](C(=O)N[C@@H](CCC(=O)O)C(=O)N[C@@H](CO)C(=O)NCCCCCCCCCCC(=O)O)NC(=O)[C@H](C(C)O)NC(=O)[C@H](C(C)C)NC(=O)[C@H](CC3CCCCC3)NC(=O)[C@H](CCN)NC(=O)[C@@H](CC(C)C)NC(=O)[C@H](CCCN)NC(=O)[C@H](CCCNC(N)=O)NC(=O)[C@H](Cc3ccc(-c4ccccc4)cc3)NC(=O)[C@H](C(C)C)NC2=O)c1 (stereo partly drawn) [Compound 3567] ({CH2CO}-[Thr(3ξ)]Y(Carboxymethyl)D[Phe(3-Me)]V[Bip][Cit][Orn][dL][Dab][Cha]V[Thr(3ξ)]CES[Aun]-OH; thioether N-14)
7.95 | Cc1cccc(C[C@@H]2NC(=O)[C@H](CC(=O)O)NC(=O)[C@H](Cc3ccc(OCC(=O)O)cc3)NC(=O)[C@H](CN)NC(=O)CSC[C@@H](C(=O)N[C@@H](CCN)C(=O)NCCCCCCCCCCC(=O)O)NC(=O)[C@H](CO)NC(=O)[C@H]([C@H](C)N)NC(=O)[C@H](CC3CCCCC3)NC(=O)[C@H](CCN)NC(=O)[C@@H](CC(C)C)NC(=O)[C@H](CCCN)NC(=O)[C@H](Cc3ccc(OCC(=O)O)cc3)NC(=O)[C@H](Cc3ccc(-c4ccccc4)cc3)NC(=O)[C@H](Cc3ccc(OCC(=O)O)cc3)NC2=O)c1 [Compound 2174] ({CH2CO}-[Dap]Y(Carboxymethyl)D[Phe(3-Me)]Y(Carboxymethyl)[Bip]Y(Carboxymethyl)[Orn][dL][Dab][Cha][Abu(3S-NH2)]SC[Dab][Aun]-OH; thioether N-14)
7.50 | Cc1cccc(C[C@@H]2NC(=O)[C@H](CC(=O)O)NC(=O)[C@H](Cc3ccc(C(=O)O)cc3)NC(=O)[C@H](Cc3ccc(OCC(=O)O)cc3)NC(=O)CSC[C@@H](C(=O)NCCOCCOCC(=O)NCCCCCCCCCCC(=O)O)NC(=O)[C@H](CCO)NC(=O)[C@H](C(C)C)NC(=O)[C@H](CC3CCCCC3)NC(=O)[C@H](CCN)NC(=O)[C@@H](CC(C)C)NC(=O)[C@H](CCCN)NC(=O)[C@H](C(C)C)NC(=O)[C@H](Cc3ccc(-c4ccccc4)cc3)NC(=O)[C@H](C(C)C)NC2=O)c1 [Compound 3327] ({CH2CO}-Y(Carboxymethyl)[Phe(4-COOH)]D[Phe(3-Me)]V[Bip]V[Orn][dL][Dab][Cha]V[hSer]C[AEEA][Aun]-OH; thioether N-14)
7.47 | CC[C@H](C)[C@@H]1NC(=O)[C@H](Cc2ccc(-c3ccccc3)cc2)NC(=O)[C@H](C(C)C)NC(=O)[C@H](Cc2c[nH]c3ccccc23)NC(=O)[C@H](CC(=O)O)NC(=O)[C@H](Cc2ccc(OCC(=O)O)cc2)NC(=O)[C@H](Cc2ccncc2)NC(=O)CSC[C@@H](C(=O)NCCOCCOCC(=O)NCCCCCCCCCCC(=O)O)NC(=O)[C@H]([C@@H](C)O)NC(=O)[C@H](C(C)C)NC(=O)[C@H](CC(C)C)NC(=O)[C@H](CCN)NC(=O)[C@@H](CC(C)C)NC(=O)[C@H](CCCN)NC1=O [Compound 1150] ({CH2CO}-[4Pal]Y(Carboxymethyl)DWV[Bip]I[Orn][dL][Dab]LVTC[AEEA][Aun]-OH; thioether N-14)
7.75 | COc1ccc(C[C@@H]2NC(=O)CSC[C@@H](C(=O)N[C@@H](CCN)C(=O)NCCCCCCCCCCC(=O)O)NC(=O)[C@H](CO)NC(=O)[C@H](C(C)(C)O)NC(=O)[C@H](CC3CCCCC3)NC(=O)[C@H](CCN)NC(=O)[C@@H](CC(C)C)NC(=O)[C@H](CCCN)NC(=O)[C@H](Cc3ccc(OCC(=O)O)cc3)NC(=O)[C@H](Cc3ccc(-c4ccccc4)cc3)NC(=O)[C@H](Cc3ccc(OCC(=O)O)cc3)NC(=O)[C@H](Cc3cccc(C)c3)NC(=O)[C@H](CC(=O)O)NC(=O)[C@H](Cc3ccc(OCC(=O)O)cc3)NC2=O)cc1 [Compound 2181] ({CH2CO}-Y(Me)Y(Carboxymethyl)D[Phe(3-Me)]Y(Carboxymethyl)[Bip]Y(Carboxymethyl)[Orn][dL][Dab][Cha][Val(3-OH)]SC[Dab][Aun]-OH; thioether N-14)
7.61 | CCC(C)[C@@H]1NC(=O)[C@H](CC2CCCCC2)NC(=O)[C@H](CCN)NC(=O)[C@@H](CC(C)C)NC(=O)[C@H](CCCN)NC(=O)[C@H](C(C)CC)NC(=O)[C@H](Cc2ccc(-c3ccccc3)cc2)NC(=O)[C@H](C(C)CC)NC(=O)[C@H](Cc2c[nH]c3ccccc23)NC(=O)[C@H](CC(=O)O)NC(=O)[C@H](Cc2ccc(OCC(=O)O)cc2)NC(=O)[C@H](C(C)O)NC(=O)CSC[C@@H](C(=O)N[C@H](CC(N)=O)C(=O)NCCOCCOCC(=O)N[C@@H](Cc2c[nH]cn2)C(=O)NCCCCCCCCCCC(=O)O)NC(=O)[C@H](CO)NC1=O (stereo partly drawn) [Compound 3119] ({CH2CO}-[Thr(3ξ)]Y(Carboxymethyl)DW[Ile(3ξ)][Bip][Ile(3ξ)][Orn][dL][Dab][Cha][Ile(3ξ)]SC[dN][AEEA]H[Aun]-OH; thioether N-14)
7.88 | CC(C)C[C@H]1NC(=O)[C@H](CCCN)NC(=O)[C@H](C(C)C)NC(=O)[C@H](Cc2ccc(-c3ccccc3)cc2)NC(=O)[C@H](C(C)C)NC(=O)[C@H](Cc2c[nH]c3ccccc23)NC(=O)[C@H](CC(=O)O)NC(=O)[C@H](Cc2ccc(OCC(=O)O)cc2)NC(=O)[C@H](Cc2ccc(OCC(=O)O)cc2)NC(=O)CSC[C@@H](C(=O)NCCOCCOCC(=O)N[C@@H](CCN)C(=O)NCCCCCCCCCCC(=O)O)NC(=O)[C@H](CN)NC(=O)[C@H](C(C)C)NC(=O)[C@H](CC2CCCCC2)NC(=O)[C@H](CCN)NC1=O [Compound 2546] ({CH2CO}-Y(Carboxymethyl)Y(Carboxymethyl)DWV[Bip]V[Orn][dL][Dab][Cha]V[Dap]C[AEEA][Dab][Aun]-OH; thioether N-14)
7.82 | CCC(C)[C@@H]1NC(=O)[C@H](Cc2ccc(-c3ccccc3)cc2)NC(=O)[C@H](C(C)C)NC(=O)[C@H](Cc2c[nH]c3ccccc23)NC(=O)[C@H](CC(=O)O)NC(=O)[C@H](Cc2ccncc2)NC(=O)[C@H](C(C)O)NC(=O)CSC[C@@H](C(=O)N[C@@H](CC(N)=O)C(=O)NCCOCCOCC(=O)N[C@@H](CCCN)C(=O)NCCCCCCCCCCCCC(=O)O)NC(=O)[C@H](CO)NC(=O)[C@H](C(C)C)NC(=O)[C@H](CC2CCCCC2)NC(=O)[C@H](CCN)NC(=O)[C@@H](CC(C)C)NC(=O)[C@H](CCCN)NC1=O (stereo partly drawn) [Compound 3040] ({CH2CO}-[Thr(3ξ)][4Pal]DWV[Bip][Ile(3ξ)][Orn][dL][Dab][Cha]VSCN[AEEA][Orn]-{NH(CH2)12COOH}; thioether N-14)
7.70 | Cc1cccc(C[C@@H]2NC(=O)C(CC(=O)O)NC(=O)[C@H](Cc3ccc(OCC(=O)O)cc3)NC(=O)[C@H](CN)NC(=O)CSC[C@@H](C(=O)N[C@@H](Cc3cnc[nH]3)C(=O)NCCCCCCCCCCC(=O)O)NC(=O)[C@H]([C@@H](C)O)NC(=O)[C@H](C(C)C)NC(=O)[C@H](CC3CCCCC3)NC(=O)[C@H](CCN)NC(=O)[C@@H](CC(C)C)NC(=O)[C@H](CCCN)NC(=O)[C@H](CCCNC(N)=O)NC(=O)C(Cc3ccc(-c4ccccc4)cc3)NC(=O)[C@H](C(C)C)NC2=O)c1 (stereo partly drawn) [Compound 1175] ({CH2CO}-[Dap]Y(Carboxymethyl)[ξD][Phe(3-Me)]V[ξBip][Cit][Orn][dL][Dab][Cha]VTCH[Aun]-OH; thioether N-14)
